From patent US8067445B2, “N,N-disubstituted aminoalkylbiphenyl antagonists of prostaglandin D2 receptors” (Panmira Pharmaceuticals, LLC, priority 2008, dated 2011) come the findings set out here.

The target in one test is T1, human DP2 receptor (Homo sapiens, UniProt Q9Y5Y4).
T1 construct: expressed in transfected cells
T1 sequence (Q9Y5Y4 1-395): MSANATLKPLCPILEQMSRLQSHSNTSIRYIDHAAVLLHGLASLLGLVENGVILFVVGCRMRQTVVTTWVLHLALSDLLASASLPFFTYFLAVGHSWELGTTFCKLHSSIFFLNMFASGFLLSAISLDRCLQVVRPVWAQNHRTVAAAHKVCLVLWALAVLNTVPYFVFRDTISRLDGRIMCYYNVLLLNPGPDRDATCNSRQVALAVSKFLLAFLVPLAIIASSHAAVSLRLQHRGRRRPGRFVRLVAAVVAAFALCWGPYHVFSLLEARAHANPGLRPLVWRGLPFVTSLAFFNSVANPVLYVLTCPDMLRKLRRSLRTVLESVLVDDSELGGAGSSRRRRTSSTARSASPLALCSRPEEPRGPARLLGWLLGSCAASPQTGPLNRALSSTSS
The test can be described thus: DP2/CRTH2 radioligand binding assay ([3H]PGD2). To be noted: [3H]PGD2 binding, membranes of HEK293 cells expressing human DP2; read-out: hDP2. Summed up: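 Membranes from HEK293 cells stably expressing recombinant human DP2 incubated 60 min at room temperature with 1 nM [3H]PGD2 and compound in pH 7.4 Hepes/MnCl2/EDTA buffer, ± 0.2% human serum albumin. Bound radioactivity measured after filtration; non-specific binding defined with 10 μM PGD2. IC50 from titration curves.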

Another test has as its target T2, human DP1 receptor (Homo sapiens, UniProt Q13258).
T2 construct: tissue Biological Specialty Corporation; host or cells: human platelet membranes
T2 sequence (Q13258 1-359): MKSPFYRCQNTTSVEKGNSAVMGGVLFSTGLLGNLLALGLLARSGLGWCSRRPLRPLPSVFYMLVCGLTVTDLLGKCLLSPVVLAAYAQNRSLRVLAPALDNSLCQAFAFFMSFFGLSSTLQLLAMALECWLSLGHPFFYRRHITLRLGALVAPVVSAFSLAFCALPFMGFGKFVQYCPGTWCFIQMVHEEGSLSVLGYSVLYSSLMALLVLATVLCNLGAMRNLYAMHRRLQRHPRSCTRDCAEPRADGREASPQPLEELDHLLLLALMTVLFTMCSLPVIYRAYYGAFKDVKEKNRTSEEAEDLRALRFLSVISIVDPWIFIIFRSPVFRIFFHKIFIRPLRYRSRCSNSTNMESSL
The test can be described thus: DP1 radioligand binding assay ([3H]BWA868C, platelet membranes). To be noted: [3H]BWA868C binding, human platelet membranes; read-out: hDP1. The method in brief: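 Human platelet membranes (20 μg protein/well) incubated 60 min at room temperature with 2 nM [3H]BWA868C and compound in 50 mM Hepes, 10 mM MnCl2, 1 mM EDTA, pH 7.4, ± 0.2% human serum albumin. Bound radioactivity measured after filtration; nonspecific binding defined with 10 μM BWA868C; IC50 from titration curves.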

In the case of `CCN(Cc1cc(C(F)(F)F)ccc1-c1cc(CC(=O)O)ccc1OC)C(=O)Cn1cccn1` [Compound 1-148, (2′-{[Ethyl-(2-pyrazol-1-yl-acetyl)-amino]-methyl}-6-methoxy-4′-trifluoromethyl-biphenyl-3-yl)-acetic acid], the IC50 on human DP2 receptor is < 300 nM; at human DP1 receptor, 1000 to 30000 nM.

`CCN(Cc1cc(C(F)(F)F)ccc1-c1cc(CC(=O)O)ccc1OC)C(=O)Cn1ccnc1C` [Compound 1-149, [2′-({Ethyl-[2-(2-methyl-imidazol-1-yl)-acetyl]-amino}-methyl)-6-methoxy-4′-trifluoromethyl-biphenyl-3-yl]-acetic acid]: the IC50 is < 300 nM at human DP2 receptor and 1000 to 30000 nM on human DP1 receptor.

Consider `CCN(Cc1cc(C(F)(F)F)ccc1-c1cc(CC(=O)O)ccc1OC)C(=O)Cn1cncn1` [Compound 1-150, (2′-{[Ethyl-(2-[1,2,4]triazol-1-yl-acetyl)-amino]-methyl}-6-methoxy-4′-trifluoromethyl-biphenyl-3-yl)-acetic acid], for which the values for the IC50 on human DP2 receptor and at human DP1 receptor were 300 to 1000 nM and 1000 to 30000 nM, respectively.

As to `CCN(Cc1cc(C(F)(F)F)ccc1-c1cc(CC(=O)O)ccc1OC)C(=O)CN1CCCC1` [Compound 1-151, (2′-{[Ethyl-(2-pyrrolidin-1-yl-acetyl)-amino]-methyl}-6-methoxy-4′-trifluoromethyl-biphenyl-3-yl)-acetic acid], the IC50 at human DP2 receptor and at human DP1 receptor was 1000 to 30000 nM each time.

In the case of `CCN(Cc1cc(NC(=O)c2ccc(Cl)cc2)ccc1-c1cc(CC(=O)O)ccc1OC)C(=O)OCc1ccccc1` [Compound 1-154, [2′-[(Benzyloxycarbonyl-ethyl-amino)-methyl]-4′-(4-chloro-benzoylamino)-6-methoxy-biphenyl-3-yl]-acetic acid], the IC50 at human DP2 receptor is < 300 nM; on human DP1 receptor, 1000 to 30000 nM.

In the case of `CCN(Cc1cc(NS(=O)(=O)c2ccc(Cl)cc2)ccc1-c1cc(CC(=O)O)ccc1OC)C(=O)OCc1ccccc1` [Compound 1-156, [2′-[(Benzyloxycarbonyl-ethyl-amino)-methyl]-4′-(4-chloro-benzenesulfonylamino)-6-methoxy-biphenyl-3-yl]-acetic acid], the results for the IC50 on human DP2 receptor and at human DP1 receptor were < 300 nM and 1000 to 30000 nM, respectively.

With `CCN(Cc1cc(C(F)(F)F)ccc1-c1cc(Cl)cc(CC(=O)O)c1)C(=O)NCc1ccccc1` [Compound 1-157, [2′-(3-Benzyl-1-ethyl-ureidomethyl)-5-chloro-4′-trifluoromethyl-biphenyl-3-yl]-acetic acid], the results for the IC50 at human DP2 receptor and at human DP1 receptor were < 300 nM and 1000 to 30000 nM, respectively.

`CCN(Cc1cc(C(F)(F)F)ccc1-c1cc(CC(=O)O)cc(C(F)(F)F)c1)C(=O)NCc1ccccc1` [Compound 1-158, [2′-(3-Benzyl-1-ethyl-ureidomethyl)-5,4′-bis-trifluoromethyl-biphenyl-3-yl]-acetic acid]: the IC50 was < 300 nM at human DP2 receptor and 1000 to 30000 nM on human DP1 receptor.

For the molecule `CCN(Cc1cc(C(F)(F)F)ccc1-c1cc(F)cc(CC(=O)O)c1)C(=O)NCc1ccccc1` [Compound 1-159, [2′-(3-Benzyl-1-ethyl-ureidomethyl)-5-fluoro-4′-trifluoromethyl-biphenyl-3-yl]-acetic acid], the IC50 on human DP2 receptor was < 300 nM; on human DP1 receptor it was 1000 to 30000 nM.

Take `CCN(Cc1cc(C(F)(F)F)ccc1-c1cc(CC(=O)O)cc(C(F)(F)F)c1)C(=O)OC` [Compound 1-163, {2′-[(Ethyl-methoxycarbonyl-amino)-methyl]-5,4′-bis-trifluoromethyl-biphenyl-3-yl}-acetic acid]: the IC50 on human DP2 receptor is < 300 nM; at human DP1 receptor it was 1000 to 30000 nM.

As to `CCN(Cc1cc(C(F)(F)F)ccc1-c1cc(Cl)cc(CC(=O)O)c1)C(=O)OC` [Compound 1-164, {5-Chloro-2′-[(ethyl-methoxycarbonyl-amino)-methyl]-4′-trifluoromethyl-biphenyl-3-yl}-acetic acid], the figures for the IC50 on human DP2 receptor and on human DP1 receptor were < 300 nM and 1000 to 30000 nM, respectively.

Turning to `CCN(Cc1ccc(C(F)(F)F)cc1-c1cc(CC(=O)O)ccc1OC)C(=O)OCc1ccc(F)cc1` [Compound 1-168, (2′-{[Ethyl-(4-fluoro-benzyloxycarbonyl)-amino]-methyl}-6-methoxy-5′-trifluoromethyl-biphenyl-3-yl)-acetic acid], the IC50 on human DP2 receptor was < 300 nM; at human DP1 receptor, 300 to 1000 nM.

On to `CCN(Cc1ccc(C)cc1-c1cc(CC(=O)O)ccc1OC)C(=O)OCc1ccc(F)cc1` [Compound 1-169, (2′-{[Ethyl-(4-fluoro-benzyloxycarbonyl)-amino]-methyl}-6-methoxy-5′-methyl-biphenyl-3-yl)-acetic acid], for which the values for the IC50 on human DP2 receptor and on human DP1 receptor were < 300 nM and 1000 to 30000 nM, respectively.

`CCN(Cc1ccc(C(F)(F)F)cc1-c1cc(CC(=O)O)ccc1OC)C(=O)C1CC1` [Compound 1-170, {2′-[(Cyclopropanecarbonyl-ethyl-amino)-methyl]-6-methoxy-5′-trifluoromethyl-biphenyl-3-yl}-acetic acid]: the IC50 at human DP2 receptor was < 300 nM; at human DP1 receptor, 1000 to 30000 nM.

As for `CCN(Cc1ccc(C)cc1-c1cc(CC(=O)O)ccc1OC)C(=O)C1CC1` [Compound 1-171, {2′-[(Cyclopropanecarbonyl-ethyl-amino)-methyl]-6-methoxy-5′-methyl-biphenyl-3-yl}-acetic acid], the IC50 is < 300 nM at human DP2 receptor and 1000 to 30000 nM on human DP1 receptor.

Consider `CCN(Cc1ccc(C(F)(F)F)cc1-c1cc(CC(=O)O)ccc1OC)C(=O)NCc1ccccc1` [Compound 1-172, [2′-(3-Benzyl-1-ethyl-ureidomethyl)-6-methoxy-5′-trifluoromethyl-biphenyl-3-yl]-acetic acid], for which the IC50 was < 300 nM at human DP2 receptor and 1000 to 30000 nM at human DP1 receptor.

Take `CCN(Cc1ccc(C)cc1-c1cc(CC(=O)O)ccc1OC)C(=O)NCc1ccccc1` [Compound 1-173, [2′-(3-Benzyl-1-ethyl-ureidomethyl)-6-methoxy-5′-methyl-biphenyl-3-yl]-acetic acid]: the figures for the IC50 at human DP2 receptor and at human DP1 receptor were < 300 nM and 1000 to 30000 nM, respectively.

Regarding `CCN(Cc1ccc(C(F)(F)F)cc1-c1cc(CC(=O)O)ccc1OC)C(=O)OCc1ccc(Cl)cc1` [Compound 1-174, (2′-{[(4-Chloro-benzyloxycarbonyl)-ethyl-amino]-methyl}-6-methoxy-5′-trifluoromethyl-biphenyl-3-yl)-acetic acid], the IC50 is < 300 nM at human DP2 receptor and 300 to 1000 nM at human DP1 receptor.

Take `CCN(Cc1ccc(C)cc1-c1cc(CC(=O)O)ccc1OC)C(=O)OCc1ccc(Cl)cc1` [Compound 1-175, (2′-{[(4-Chloro-benzyloxycarbonyl)-ethyl-amino]-methyl}-6-methoxy-5′-methyl-biphenyl-3-yl)-acetic acid]: the IC50 on human DP2 receptor was < 300 nM; at human DP1 receptor, 300 to 1000 nM.

Consider `CCN(Cc1cc(C(F)(F)F)ccc1-c1cc(CC(=O)O)ccc1OC)C(=O)NC1CC1` [Compound 1-182], for which the IC50 on human DP2 receptor was < 300 nM; on human DP1 receptor, 1000 to 30000 nM.

Regarding `CCN(Cc1cc(C(F)(F)F)ccc1-c1cc(CC(C)(C)O)ccc1OC)C(C)=O` [Compound 2-2, N-Ethyl-N-[5′-(2-hydroxy-2-methyl-propyl)-2′-methoxy-4-trifluoromethyl-biphenyl-2-ylmethyl]-acetamide], the IC50 on human DP2 receptor and on human DP1 receptor was 1000 to 30000 nM throughout.

For `CCN(Cc1cc(C(F)(F)F)ccc1-c1cc(CC#N)ccc1OC)C(=O)C1CC1` [Compound 2-3, Cyclopropanecarboxylic acid (5′-cyanomethyl-2′-methoxy-4-trifluoromethyl-biphenyl-2-ylmethyl)-ethyl-amide], the results for the IC50 on human DP2 receptor and on human DP1 receptor were > 30000 nM and 1000 to 30000 nM, respectively.

Turning to `CCN(Cc1cc(C(F)(F)F)ccc1-c1cc(CC#N)ccc1OC)C(=O)OCc1ccccc1` [Compound 2-4, (5′-Cyanomethyl-2′-methoxy-4-trifluoromethyl-biphenyl-2-ylmethyl)-ethyl-carbamic acid benzyl ester], the IC50 on human DP2 receptor was > 30000 nM; at human DP1 receptor, 1000 to 30000 nM.

As to `CCN(Cc1cc(C(F)(F)F)ccc1-c1cc(Cc2nn[nH]n2)ccc1OC)C(=O)OCc1ccccc1` [Compound 2-5, Ethyl-[2′-methoxy-5′-(2H-tetrazol-5-ylmethyl)-4-trifluoromethyl-biphenyl-2-ylmethyl]-carbamic acid benzyl ester], the IC50 at human DP2 receptor and on human DP1 receptor was < 300 nM each time.

For `CCN(Cc1cc(C(F)(F)F)ccc1-c1cc(CC(N)=O)ccc1OC)C(=O)OCc1ccccc1` [Compound 2-6, (5′-Carbamoylmethyl-2′-methoxy-4-trifluoromethyl-biphenyl-2-ylmethyl)-ethyl-carbamic acid benzyl ester], the IC50 on human DP2 receptor and at human DP1 receptor was 1000 to 30000 nM each time.
